# Values joined by “and” are separate entries in the source; they are usually repeats but may differ in a detail not shown here. Equal values may be shown once.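 Interpolation was linear, between the two tested concentrations surrounding the appropriate level; five concentrations were tested over 48 hours in 96-well plates. GI50 = concentration required for 50% inhibition of growth. TGI: total growth inhibition.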
# Experiments:
# Experiment in all cases: DTP human tumour cell line panel, 48 h
# MCF7 breast = test system: MCF7 breast
# SF-268 CNS = test system: SF-268 CNS
# A549 NSCLC = test system: A549 NSCLC
# OVCAR-8 ovarian = test system: OVCAR-8 ovarian
# BT-549 breast = test system: BT-549 breast
# HT29 colon = test system: HT29 colon
# NCI-H226 lung = test system: NCI-H226 lung
# HOP-62 NSCLC = test system: HOP-62 NSCLC
# HS 578T breast = test system: HS 578T breast
# SNB-75 CNS = test system: SNB-75 CNS
Compound,GI50 (MCF7 breast) [µM],TGI (MCF7 breast),TGI (SF-268 CNS),TGI (A549 NSCLC),GI50 (OVCAR-8 ovarian) [µM],TGI (OVCAR-8 ovarian),GI50 (BT-549 breast) [µM],TGI (BT-549 breast),TGI (HT29 colon),TGI (NCI-H226 lung) [µM],GI50 (HOP-62 NSCLC) [µM],TGI (HOP-62 NSCLC),GI50 (HS 578T breast) [µM],TGI (HS 578T breast),GI50 (SNB-75 CNS) [µM],TGI (SNB-75 CNS),GI50 (SF-268 CNS) [µM],GI50 (A549 NSCLC) [µM],GI50 (HT29 colon) [µM],GI50 (NCI-H226 lung) [µM]
CCN(CC)CCCC(C)Nc1c2ccc(Cl)cc2nc2ccc(OC)cc12 (stereo unspecified),2.33,8.04 µM and 10.7 µM,5.03 µM and 7.68 µM,3.68 µM and 3.64 µM,1.23,5.64 µM and 5.73 µM,2.17,4.84 µM and 6.51 µM,3.97 µM and 2.57 µM,10.7,1.61,3.98 µM and 8.04 µM,2.46,8.27 µM and 14.8 µM,2.35,6.66 µM and 3.05 µM,–,–,–,–
NOCC(=O)O,> 100,> 100 µM,> 100 µM,> 100 µM,> 100,> 100 µM,> 100,> 100 µM,> 100 µM,> 100,> 100,> 100 µM,71.1,> 100 µM,> 100,> 100 µM,> 100,49.5,58.7,> 100
CC(=O)CC(=O)Nc1ccc2ccccc2c1,–,> 100 µM,> 100 µM,> 100 µM,–,> 100 µM,–,> 100 µM,> 100 µM,> 100,–,> 100 µM,–,> 100 µM,–,> 100 µM,–,–,–,–
COc1cc(OC)cc(C2CC(=O)Nc3c2c(C)nn3-c2nc3ccccc3[nH]2)c1 (stereo unspecified),2.94,> 100 µM,> 100 µM,15.5 µM,3.97,> 100 µM,2.46,7.86 µM,7.43 µM,6.38,2.65,6.62 µM,3.06,39.9 µM,3.47,9.65 µM,3.57,3.18,2.75,2.52
CCC1(CC)C(=O)OC(=O)C1(CC)CC,–,–,> 100 µM,> 100 µM,–,> 100 µM,–,> 100 µM,> 100 µM,–,–,> 100 µM,–,> 100 µM,–,> 100 µM,–,–,–,–
C=C1C(=O)O[C@H]2[C@H]1CC/C(CNC(=O)c1cc3cc(OC)ccc3[nH]1)=C\CC[C@@]1(C)O[C@@H]21,–,–,4.47 µM,14.4 µM,2.06,7.78 µM,1.44,3.42 µM,4.51 µM,4.6,3.22,13.8 µM,2.88,11.8 µM,1.9,13.1 µM,1.79,3.69,1.41,1.71
CN1CCN(CCCN)CC1,–,> 100 µM,> 100 µM,> 100 µM,–,> 100 µM,–,> 100 µM,> 100 µM,> 100,–,> 100 µM,–,> 100 µM,–,> 100 µM,–,–,–,–
Nc1ccc(N(S(=O)(=O)c2ccccc2)S(=O)(=O)c2ccccc2)c(Cl)c1,–,> 100 µM,> 100 µM,> 100 µM,–,> 100 µM,–,> 100 µM,> 100 µM,> 100,–,> 100 µM,–,> 100 µM,–,> 100 µM,–,–,–,–
ClCc1cccc(Cn2cnc3c(NC45CC6CC(CC(C6)C4)C5)ncnc32)c1,9.1,45.5 µM,40.5 µM,> 60.1 µM,17.8,50.8 µM,12.8,29.4 µM,> 100 µM,69.2,20.5,37.5 µM,23.4,68.2 µM,17.4,43.1 µM,12,21.7,23.9,22.9
CC(C)=CCCC(C)c1ccc(C)c2c1OCN(CC1CCNCC1)C2 (stereo unspecified),6.15,18.7 µM,33.3 µM,27.8 µM,18.4,34.5 µM,16.9,41.6 µM,8.38 µM,33.8,14.8,28.7 µM,13.3,29.9 µM,11.9,24.3 µM,16.6,13,3,17.7
CC(C)c1ccc(C(=O)Nc2nc3ccc(O)cc3s2)cc1,0.442,48.2 µM,> 100 µM,> 100 µM,1.48,> 100 µM,2.8,> 100 µM,17.8 µM,50.4,1.74,> 100 µM,11.4,> 100 µM,9.18,73.2 µM,4.06,2.33,3.38,5.16
Cn1c([N+](=O)[O-])cnc1/C=C1\Oc2ccccc2C1=O,0.46,8.88 µM,1.66 µM,5.12 µM,0.186,0.677 µM,0.659,4.17 µM,0.629 µM,4.91,1.07,4.42 µM,1.15,–,1.51,4.87 µM,0.303,1.02,0.203,1.68
O=[N+]([O-])c1cc(Cl)c(Cl)c([N+](=O)[O-])c1Cl,1.14,3.42 µM,3.39 µM,3.65 µM,1.34,2.97 µM,1.81,3.39 µM,4 µM,7.16,1.82,3.25 µM,2.35,7.47 µM,1.47,2.81 µM,1.77,1.78,1.18,2.61
COc1ccc(/C=N\NC(=O)CN2CCN(c3cc4c(cc3F)c(=O)c(C(=O)N/N=C/c3ccc(OC)c(OC)c3)cn4C3CC3)CC2)cc1OC,3.21,> 100 µM,7.12 µM,75.9 µM,3.81,81.1 µM,1.78,3.89 µM,> 100 µM,24,2.74,9.54 µM,2.51,8.99 µM,1.56,3.49 µM,2.53,4.3,3.46,4.44
CCN(CC)CC(O)CNc1ccc(NCC2CO2)c2c1C(=O)c1ccccc1C2=O (stereo unspecified),0.0284,0.169 µM,0.683 µM,5.69 µM,–,1.32 µM,1.22,4.27 µM,6.87 µM,3.21,0.297,4.02 µM,–,24.1 µM,–,4.29 µM,–,–,0.275,0.958
COc1cc(C(=O)/C(C)=C/c2c[nH]c3ccccc23)cc(OC)c1OC,0.00357,> 100 µM,10.6 µM,> 100 µM,0.00358,82.4 µM,0.00583,–,–,> 100,0.00541,11.9 µM,0.00478,48 µM,0.00334,16.1 µM,0.00544,0.0041,0.00402,–
COc1cc2c(cc1OCCCOc1cc3c(cc1OC)C(=O)N1C[C@H](F)C[C@H]1C=N3)N=C[C@@H]1C[C@@H](F)CN1C2=O,3.09,18.1 µM,6.01 µM,28.5 µM,6.3,18.5 µM,3.36,17.9 µM,41.9 µM,–,6.2,19.3 µM,–,–,–,–,2.26,13.6,17.3,–
CCN1CCN(C(=O)[C@]23CC[C@@H](C)[C@H](C)[C@@H]2C2=CC[C@@H]4[C@@]5(C)C/C(=C/c6ccncc6)C(=O)C(C)(C)[C@@H]5CC[C@@]4(C)[C@]2(C)CC3)CC1,1.57,3.2 µM,3.13 µM,3.72 µM,2.26,5.75 µM,1.78,3.78 µM,4.08 µM,3.64,2.37,5.75 µM,1.81,4.3 µM,1.27,2.67 µM,1.64,1.78,1.59,1.75
O=S(=O)(NC1=NCCN1C(=S)SN1CCn2c1nsc2=S)c1ccc(Br)cc1,31.7,> 100 µM,> 100 µM,> 100 µM,25.8,68.8 µM,–,–,> 100 µM,> 100,52.4,> 100 µM,21.4,67.2 µM,44.5,> 100 µM,39.4,> 100,42.5,40.2
COc1ccc(N2C(=O)CC(Cl)C2=O)cc1 (stereo unspecified),–,> 100 µM,> 100 µM,> 100 µM,–,30.2 µM,–,> 100 µM,31.7 µM,46.4,–,> 100 µM,–,> 100 µM,–,> 100 µM,–,–,–,–
O=c1c2cc(Cl)ccc2oc2ccc(OCCCCCN3CCCCC3)cc12,5.24,14.6 µM,12.2 µM,10.9 µM,6.09,14.2 µM,6.26,12.8 µM,3.31 µM,18.6,7.03,14.4 µM,6.16,15.1 µM,7.44,14 µM,5.28,4.78,1.27,8.74
O=C1c2ccccc2C(=O)N1CCCSc1ccccc1,–,> 100 µM,> 100 µM,> 100 µM,–,> 100 µM,–,> 100 µM,> 100 µM,> 100,–,> 100 µM,–,> 100 µM,–,> 100 µM,–,–,–,–
COc1cc(OC)c(/C=C/S(=O)(=O)Cc2cnc(OC)c(N)c2)c(OC)c1,< 0.0155,> 100 µM,> 100 µM,> 100 µM,< 0.024,> 100 µM,< 0.0256,> 74.6 µM,–,> 100,< 0.0185,> 100 µM,< 0.0202,> 100 µM,–,–,< 0.0328,< 0.0263,< 0.0185,> 40.1
O=c1c(Oc2ccc(F)cc2F)cc2cnc(NC3CCOCC3)nc2n1C1CCS(=O)(=O)CC1,> 25,> 25 µM,> 25 µM,> 25 µM,> 25,> 25 µM,> 25,> 25 µM,> 25 µM,> 25,> 25,> 25 µM,> 25,> 25 µM,> 25,> 25 µM,> 25,> 25,> 25,> 25
O=c1ccn(C2OC(CO)C(O)C2F)c(=O)[nH]1 (stereo unspecified),> 1000,> 1000 µM,> 1000 µM,> 1000 µM,> 1000,> 1000 µM,> 85.9,> 100 µM,> 1000 µM,> 1000,> 1000,> 1000 µM,> 1000,> 1000 µM,–,> 100 µM,> 1000,> 1000,> 1000,> 1000
C=CCC(N[C@H](CO)c1ccccc1)c1ccc2ccccc2n1 (stereo partly specified),–,–,–,> 100 µM,> 100,> 100 µM,> 100,> 100 µM,> 100 µM,> 100,> 100,> 100 µM,22.5,> 100 µM,> 100,> 100 µM,–,> 100,> 100,> 100
Nc1c(C(=O)c2ccc(Cl)cc2)sc(Nc2ccccc2)c1-c1nc2ccccc2s1,1.65,> 100 µM,> 100 µM,> 100 µM,2.68,> 100 µM,2.29,19.5 µM,–,> 100,3.71,65.8 µM,2.56,26.9 µM,1.89,9.5 µM,1.44,> 100,–,1.58
O=C(/C=C/c1ccc(F)cc1)c1ccc(Cl)cc1Cl,20.6,62.5 µM,> 100 µM,> 100 µM,33.7,> 100 µM,27.2,71.6 µM,–,> 100,> 100,> 100 µM,54.3,> 100 µM,–,–,74.5,33.5,–,> 100

# From PubChem BioAssay (NCI)
